Experiments:
[1] = tested on: Mus musculus; experiment: Biodistribution in athymic mice bearing Human Tumor (LS174T) Xenografts 1 hour after injection in Blood (B); format: ADME, organism-based; settings: in vivo
[2] = (§1) Ratio of biodistributions in Athymic mice bearing human Tumor (LS174T) xenografts in Tumor (T) and blood (B); format: ADME, organism-based; settings: mouse, read-out: Biodistribution ratio
[3] = tested on: Mus musculus; experiment: Biodistribution in athymic mice bearing Human Tumor (TE671) Xenografts 1 hour after injection in Muscle (M); format: ADME, organism-based; settings: in vivo
[4] = tested on: Mus musculus; experiment: Biodistribution in athymic mice bearing Human Tumor (LS174T) Xenografts 1 hour after injection in Heart (H); format: ADME, organism-based; settings: in vivo
[5] = tested on: Homo sapiens; experiment: Biodistribution in athymic mice bearing Human Tumor (TE671) Xenografts 1 hour after injection in Tumor (T) cells; format: ADME, organism-based; settings: in vivo
[6] = (§2) Ratio of biodistributions in Athymic mice bearing human Tumor (TE671) xenografts in Tumor (T) and blood (B); format: ADME, organism-based; settings: mouse, read-out: Biodistribution ratio
[7] = (§3) Ratio of biodistributions in Athymic mice bearing human Tumor (KB) xenografts in Heart (H) and Blood (B); format: ADME, organism-based; settings: mouse, read-out: Biodistribution ratio
[8] = tested on: Mus musculus; experiment: Biodistribution in athymic mice bearing Human Tumor (LS174T) Xenografts 1 hour after injection in Tumor (T) cells; format: ADME, organism-based; settings: in vivo
[9] = tested on: Homo sapiens; experiment: Biodistribution in athymic mice bearing Human Tumor (KB) Xenografts 1 hour after injection in Tumor (T) cells; format: ADME, organism-based; settings: in vivo
[10] = tested on: Mus musculus; experiment: Ratio of biodistributions in Athymic mice bearing human Tumor (KB) xenografts in Tumor (T) and Muscle (M); format: ADME, organism-based; settings: in vivo
[11] = tested on: Mus musculus; experiment: Biodistribution in athymic mice bearing Human Tumor (LS174T) Xenografts 1 hour after injection in Lung (L); format: ADME, organism-based; settings: in vivo
[12] = tested on: Mus musculus; experiment: Biodistribution in athymic mice bearing Human Tumor (TE671) Xenografts 1 hour after injection in Heart (H); format: ADME, organism-based; settings: in vivo
[13] = (§4) Ratio of biodistributions in Athymic mice bearing human Tumor (KB) xenografts in Tumor (T) and blood (B); format: ADME, organism-based; settings: mouse, read-out: Biodistribution ratio
[14] = tested on: Mus musculus; experiment: Ratio of biodistributions in Athymic mice bearing human Tumor (LS174T) xenografts in Heart (H) and Lung (L); format: ADME, organism-based; settings: in vivo
[15] = (§5) Ratio of biodistributions in Athymic mice bearing human Tumor (LS174T) xenografts in Heart (H) and Blood (B); format: ADME, organism-based; settings: mouse, read-out: Biodistribution ratio
[16] = (§6) Ratio of biodistributions in Athymic mice bearing human Tumor (TE671) xenografts in Heart (H) and Blood (B); format: ADME, organism-based; settings: mouse, read-out: Biodistribution ratio
[17] = tested on: Mus musculus; experiment: Ratio of biodistributions in Athymic mice bearing human Tumor (TE671) xenografts in Heart (H) and Lung (L); format: ADME, organism-based; settings: in vivo
[18] = tested on: Mus musculus; experiment: Ratio of biodistributions in Athymic mice bearing human Tumor (KB) xenografts in Heart (H) and Lung (L); format: ADME, organism-based; settings: in vivo
[19] = tested on: Mus musculus; experiment: Biodistribution in athymic mice bearing Human Tumor (KB) Xenografts 1 hour after injection in Blood (B); format: ADME, organism-based; settings: in vivo
[20] = tested on: Mus musculus; experiment: Biodistribution in athymic mice bearing Human Tumor (TE671) Xenografts 1 hour after injection in Lung (L); format: ADME, organism-based; settings: in vivo
[21] = tested on: Mus musculus; experiment: Biodistribution in athymic mice bearing Human Tumor (KB) Xenografts 1 hour after injection in Muscle (M); format: ADME, organism-based; settings: in vivo
[22] = tested on: Mus musculus; experiment: Biodistribution in athymic mice bearing Human Tumor (KB) Xenografts 1 hour after injection in Heart (H); format: ADME, organism-based; settings: in vivo
[23] = tested on: Mus musculus; experiment: Biodistribution in athymic mice bearing Human Tumor (TE671) Xenografts 1 hour after injection in Blood (B); format: ADME, organism-based; settings: in vivo
[24] = tested on: Mus musculus; experiment: Biodistribution in athymic mice bearing Human Tumor (LS174T) Xenografts 1 hour after injection in Muscle (M); format: ADME, organism-based; settings: in vivo
[25] = tested on: Mus musculus; experiment: Ratio of biodistributions in Athymic mice bearing human Tumor (LS174T) xenografts in Tumor (T) and Muscle (M); format: ADME, organism-based; settings: in vivo
[26] = tested on: Mus musculus; experiment: Ratio of biodistributions in Athymic mice bearing human Tumor (TE671) xenografts in Tumor (T) and Muscle (M); format: ADME, organism-based; settings: in vivo
[27] = tested on: Mus musculus; experiment: Biodistribution in athymic mice bearing Human Tumor (KB) Xenografts 1 hour after injection in Lung (L); format: ADME, organism-based; settings: in vivo
[28] = tested on: Mus musculus; experiment: as §2; format: ADME, organism-based, Blood/Heart
[29] = tested on: Mus musculus; experiment: as §3; format: ADME, organism-based
[30] = tested on: Mus musculus; experiment: as §4; format: ADME, organism-based
[31] = tested on: Mus musculus; experiment: as §5; format: ADME, organism-based
[32] = tested on: Mus musculus; experiment: as §6; format: ADME, organism-based
[33] = tested on: Mus musculus; experiment: as §1; format: ADME, organism-based, Blood/Heart

| Compound | Dose/g [1] [%] | Dose/g [3] [%] | Dose/g [4] [%] | Dose/g [5] [%] | Dose/g [8] [%] | Dose/g [9] [%] | Biodistribution ratio [10] | Dose/g [11] [%] | Dose/g [12] [%] | Biodistribution ratio [14] | Biodistribution ratio [17] | Biodistribution ratio [18] | Dose/g [19] [%] | Dose/g [20] [%] | Dose/g [21] [%] | Dose/g [22] [%] | Dose/g [23] [%] | Dose/g [24] [%] | Biodistribution ratio [25] | Biodistribution ratio [26] | other results |
| --- | --- | --- | --- | --- | --- | --- | --- | --- | --- | --- | --- | --- | --- | --- | --- | --- | --- | --- | --- | --- | --- |
| COC(=O)c1ccccc1-c1c2ccc(=N)cc-2oc2cc(N)ccc12.[125IH] | 1.74 | 0.36 | 0.6 | 1.1 | 0.59 | 1.67 | 1.2 | 0.91 | 0.6 | 0.7 | 0.7 | 0.8 | 4.6 | 0.91 | 1.44 | 2.56 | 1.74 | 0.36 | 1.6 | 3.1 | Kp [2]: 0.34; Kp [6]: 0.63; Kp [7]: 0.6; Kp [13]: 0.36; Kp [15]: 0.5; Kp [16]: 0.5; Dose/g [27]: 3.23% |
| Hexakis-(2-methoxyisobutylisonitrile)Technetium (99mTc-MIBI) | 0.13 | 1.22 | 6 | 1.1 | 0.52 | 0.65 | 0.24 | 0.5 | 6 | 12 | 12 | 4.5 | 0.17 | 0.5 | 2.74 | 8.13 | 0.13 | 1.22 | 0.43 | 0.9 | Biodistribution ratio [28]: 8.5; Biodistribution ratio [29]: 48; Biodistribution ratio [30]: 3.8; Biodistribution ratio [31]: 46; Biodistribution ratio [32]: 46; Biodistribution ratio [33]: 4; Dose/g [27]: 1.82% |

From ChEMBL document CHEMBL1131575, “[125I/127I/131I]Iodorhodamine: synthesis, cellular localization, and biodistribution in athymic mice bearing human tumor xenografts and comparison with [99mTc]hexakis(2-methoxyisobutylisonitrile)” (J Med Chem, 1998)
